System: B16 melanoma
Experiment: Tumor growth and survival of mice which have a B16 melanoma
Format: in vivo, mouse
Settings: for inhibition of tumor growth: mice with subcutaneous B16 melanoma, dose of 300 mg/kg
Protocol: A melanoma is induced in a mouse by subcutaneous injection of tumor cells (B16 cells).
The tumor develops within 10 days in the subcutaneous position (ventral face of the thigh). The size of the tumor is measured with a caliper rule and its volume is estimated according to the formula V=L×w×w, in which L represents the length and w represents the width. Various compounds of the invention were administered to mice having received syngenic melanoma cells (B16) at a dose of 300 mg/kg.

Substance	mortality in treated mouse group (after 18 days of treatment, 300 mg/kg, nontreated mouse group 40% mortality)	inhibition of tumor growth
6-(METHYL 6-DEOXY-α-D-MANNOPYRANOSIDE) BORONIC ACID [compound 7f]	no mortality	65%
METHYL 6-O-HYDROGENOPHOSPHONATE-α-D-MANNO-PYRANOSIDE [compound 4e]		40%

— patent US20130164387A9, “NOVEL MANNOPYRANOSIDE DERIVATIVES WITH ANTICANCER ACTIVITY” (Centre National De La Recherche Scientifique, priority 2009, published 2013)
